From US20150231198A1 (priority 2014, published 2015)
pIC50: −log10 of the molar value.

How the values were obtained:
Karpas 299 cell line = assay: Flow cytometry apoptosis (Annexin V-FITC/PI), Karpas 299; format: cell-based
[1] = test system: Primary GFP+ cells from the Itk-Syk transgenic mouse model; assay: Apoptosis and synergy in primary GFP+ cells from Itk-Syk transgenic mouse; format: cell-based; settings: 48 hours
Jurkat = assay: cells; format: cell-based; settings: Homo sapiens, 48 h, read-out: IC50 (concentration that inhibits viability by 50%)
Karpas 299 = assay: cells; format: cell-based; settings: Homo sapiens, KARPAS-299, 48 h, read-out: IC50 (concentration that inhibits viability by 50%)
HH = assay: cells; format: cell-based
Sup-T1 = assay: cells; format: cell-based; settings: Homo sapiens, SUP-T1, 48 h, read-out: IC50 (concentration that inhibits viability by 50%)
HD-MAR2 = assay: cells; format: cell-based; settings: 48 h, read-out: IC50 (concentration that inhibits viability by 50%)
SUP-T1 cells = assay: Flow cytometry apoptosis (Annexin V-FITC/PI), SUP-T1; format: cell-based; settings: 48 hours
[2] = in vivo; cited from earlier work
[3] = test system: protein, primarily albumin; settings: cited from earlier work
[4] = after intravenous infusion; cited from earlier work
[5] = water; cited from earlier work

**Q.** Which results are given for `C/C=C1\NC(=O)[C@H]2CSSCC/C=C/[C@H](CC(=O)N[C@H](C(C)C)C(=O)N2)OC(=O)[C@H](C(C)C)NC1=O` [romidepsin, (1S,4S,7Z,10S,16E,21R)-7-ethyl idene-4,21-bis(1-methylethyl)-2-oxa-12,13-dithia-5,8,20,23-tetrazabicyclo[8.7.6]tricos-16-ene-3,6,9,19,22-pentone]?
**A.** apoptosis induced, % of the cell population (Karpas 299 cell line; Karpas 299, romidepsin alone at 1 nM): up to 40%; apoptosis induced, % of the cells ([1]; romidepsin alone): 60%; pIC50 (Jurkat): 9.34; pIC50 (Karpas 299): 9.25; pIC50 (HH; Homo sapiens, 48 h, read-out: IC50 (concentration that inhibits viability by 50%)): 8.77; pIC50 (Sup-T1): 9.03; pIC50 (HD-MAR2): 9.48; apoptosis induced, % cells (SUP-T1 cells; SUP-T1, romidepsin alone): 31%

**Q.** What does the source list for `Cn1c(CCCC(=O)O)nc2cc(N(CCCl)CCCl)ccc21` [bendamustine]?
**A.** incidence of hair loss (alopecia) [2]: low incidence; apoptotic cells (Karpas 299 cell line; Karpas 299, bendamustine at 10 μM (IC50-60)): 35%; drug bound to protein [3]: More than 95%; half-life (first phase of biphasic elimination) [4]: 6 to 10 min; terminal half-life [4]: approximately 30 minutes; apoptosis induced, % of the cells ([1]; bendamustine alone): 72%; pIC50 (Jurkat): 4.75; pIC50 (Karpas 299): 4.49; growth inhibition (sensitivity of cell line) (HH; concentrations as high as 30 μM, 48 hours of exposure): resistant; pIC50 (Sup-T1): 5.05; pIC50 (HD-MAR2): 5.03; solubility [5]: water soluble; apoptosis induced, % cells (SUP-T1 cells; SUP-T1, bendamustine alone): 50%
